Results: US20240424019A1, “SHP1 MODIFIED DENDRITIC CELLS AND EXTRACELLULAR VESICLES DERIVED THEREFROM AND ASSOCIATED METHODS” (BOARD OF REGENTS, THE UNIVERSITY OF TEXAS SYSTEM, priority 2021, published 2024)

Experiments:
B16-GMCSF melanoma = B16-GMCSF melanoma model; assay type: in vivo, mouse; details: intradermal implants, C57BL/6 mice, 3 mg/kg oral daily, day 19, vs vehicle, n=5
human iPSC-DCs = assay: Activation of human iPSC-derived DCs by flow cytometry; assay type: cell-based; details: vitamin E 50 μg/ml or TPI-1 1 μg/ml, 72 h, gated on CD11c+
Source text: FIG. 10A: Representative high magnification photomicrographs (100×, 200×, 400×) illustrating the morphology of colonies and individual cells of fully differentiated iPSC-derived DCs (iPSC-DCs) displaying characteristic DC morphology consisting of protrusions and veils of cytoplasm at the end of the differentiation procedure (day 23) after using the differentiation protocol for the addition and withdrawal of growth factors and cytokines. FIG. 10B: Phenotypic characterization of generated human iPSC-DCs. Representative flow cytometry analysis depicting the expression of DC lineage markers by iPSC-DCs gated on the CD11c+ population. Levels of expression of individual markers are shown as red histograms, while non-specific staining by isotype controls is shown as light blue histograms. FIG. 10C: Phenotypic characterization of human iPSC-DCs after treatment with vitamin E or TPI-1 to inhibit SHP1. Representative flow cytometry analysis (left panel) and quantification (right panel) depicting the expression of indicated activity markers by iPSC-DCs gated on the CD11c+population with the treatment of vehicle, vitamin E (50 μg/ml) or TPI-1 (1 μg/ml) for 72 h.
We explored the feasibility of differentiating populations of primary DCs from iPSCs and characterized the phenotype of iPSC-DC with the pharmacological inhibition of SHP1 by vitamin E or TPI-1. […]

For `O=C1C=CC(=O)C(c2cc(Cl)ccc2Cl)=C1` [TPI-1, 2-(2,5-dichlorophenyl)-2,5-cyclohexadiene-1,4-dione], the mean tumor volume (B16-GMCSF melanoma) was “significantly smaller tumor volume” and the “expression of DC activation markers on iPSC-DCs” value (human iPSC-DCs) was “increased expression of DC activation markers CD40 and CD86”.
